Legend:
[1] = Activation of NF-kappaB (unknown origin); parameters: species or system Homo sapiens
[2] = Activation of NF-kappaB (unknown origin) relative to control; details: Homo sapiens
[3] = species: Homo sapiens; test: Potency index, ratio of SRI-22818 EC50 to test compound EC50 for activation of NF-kappaB (unknown origin)

Structure (SMILES)	EC50 [1]	Emax [2]	EC50 ([1]; read-out: EC50)	Ratio EC50 [3]
O=C(c1ccc2c(c1)OCO2)c1ccn(-c2ccccc2Br)c1	Not Active			
COc1ccccc1N/C=C\C(=O)c1ccc2c(c1)OCO2		14%	3900 nM	
Cn1cc(C(=O)c2ccc3c(c2)OCO3)c2cccc(Br)c21	Not Active			
O=C(/C=C\Nc1ccccc1Br)c1ccc2c(c1)OCO2		26%	500 nM	
Cc1cccnc1N/C=C\C(=O)c1ccc2c(c1)OCO2		22%	300 nM	
COc1ccc(C(=O)c2c[nH]c3cc(Br)ccc23)cc1OC	Not Active			
Cc1cccc2c(C(=O)c3ccc4c(c3)OCO4)c[nH]c12		23%	43200 nM	
Cc1ccccc1-n1ccc(C(=O)c2ccc3c(c2)OCO3)c1		10%	22400 nM	
O=C(c1ccc(Cl)c(Cl)c1)c1c[nH]c2cc(Br)ccc12	Not Active			
O=C(/C=C\Nc1ccccc1C(F)(F)F)c1ccc2c(c1)OCO2		8%	3100 nM	
O=C(c1ccc(F)c(F)c1)c1ccn(-c2ccccc2F)c1		13%	5840 nM	
O=C(/C=C\Nc1ccccc1Br)c1ccccn1	Not Active			
Fc1ccccc1-n1ccc(CNc2ccc3c(c2)OCO3)c1		10.4%	15000 nM	
O=C(/C=C\Nc1ccccc1C(F)(F)F)c1ccccn1		16%	1400 nM	
O=C(CCNc1ccccc1Br)c1ccc2c(c1)OCO2	Not Active			
O=C(/C=C\Nc1ccccc1Cl)c1ccc2c(c1)OCO2		24%	500 nM	
O=C(/C=C\Nc1ccccc1F)c1ccc2c(c1)OCO2		22%	320 nM	
O=C(c1ccc2c(c1)OCO2)c1ccn(-c2cccc(F)c2)c1		13.8%	17700 nM	
O=C(/C=C\Nc1ncccc1C(F)(F)F)c1ccccn1		16%	700 nM	
O=C(c1ccc2c(c1)OCO2)c1c[nH]c2c(Br)cccc12		18%	21400 nM	
O=C(c1ccc2c(c1)OCO2)c1c[nH]c2cnccc12	Not Active			
COc1ccccc1N/C=C\C(=O)c1ccccn1		8%	200 nM	
O=C(c1ccc2c(c1)OCO2)c1c[nH]c2cc(Cl)ccc12		13.2%	1200 nM	
O=C(c1ccc2c(c1)OCO2)c1c[nH]c2cc(Br)ccc12		11.2%	1000 nM	
COc1cccnc1N/C=C\C(=O)c1ccccn1		24%	300 nM	
O=C(/C=C\Nc1ccccc1Cl)c1ccccn1	Not Active			

Structure (SMILES)	EC50 [1]	Emax [2]	EC50 ([1]; read-out: EC50)	Ratio EC50 [3]
Cc1ccccc1N/C=C\C(=O)c1ccc2c(c1)OCO2		24%	800 nM	
O=C(/C=C\Nc1ccccc1)c1ccc2c(c1)OCO2		11%	400 nM	
O=C(c1ccncc1)c1c[nH]c2c(Br)cccc12	Not Active			
COc1cccnc1N/C=C\C(=O)c1ccc2c(c1)OCO2		12%	3300 nM	
O=C(c1ccc(Cl)c(Cl)c1)c1ccn(-c2ccccc2F)c1		8.3%	7710 nM	
O=C(c1ccc2c(c1)OCO2)c1ccccc1Nc1ccccc1Br	Not Active			
O=C(c1ccc2c(c1)OCO2)c1c[nH]c2ccc(Br)cc12		3%	4500 nM	
O=C(c1ccc2c(c1)OCO2)c1ccn(-c2ccccc2F)c1		12.5%	3210 nM	
Cc1ccccc1N/C=C\C(=O)c1ccccn1		17%	300 nM	
Cc1ccc(C(=O)c2c[nH]c3cc(Br)ccc23)cc1C	Not Active			
O=C(c1ccc2c(c1)OCO2)c1ccn(-c2ccccc2Cl)c1		15.1%	7800 nM	
O=C(c1ccccc1)c1c[nH]c2c(Br)cccc12	Not Active			
Cc1cccnc1N/C=C\C(=O)c1ccccn1		22%	900 nM	
O=C(c1ccc2c(c1)OCO2)c1c[nH]c2c(F)cccc12		18%	13400 nM	
O=C(c1ccc2c(c1)OCO2)c1c[nH]c2cccc(Br)c12	Not Active			
O=C(/C=C\Nc1ccccc1F)c1ccccn1		20%	1000 nM	
O=C(/C=C\Nc1ncccc1F)c1ccc2c(c1)OCO2		17%	100 nM	5
O=C(c1ccc2c(c1)OCO2)c1c[nH]c2cc(F)ccc12		8.6%	4400 nM	
O=C(c1ccccn1)c1c[nH]c2c(Br)cccc12	Not Active			
O=C(c1ccc2c(c1)OCO2)c1ccn(-c2ccc(F)cc2)c1		13.2%	12900 nM	
O=C(Nc1ccc2c(c1)OCO2)c1ccn(-c2ccccc2F)c1		34%	11300 nM	
O=C(/C=C\Nc1ncccc1C(F)(F)F)c1ccc2c(c1)OCO2		23%	800 nM	
O=C(/C=C\Nc1ncccc1F)c1ccccn1		14%	900 nM	
Cc1ccc(C(=O)c2ccn(-c3ccccc3F)c2)cc1C		19.9%	11900 nM	
O=C(c1ccc(F)c(F)c1)c1c[nH]c2cc(Br)ccc12	Not Active			

— ChEMBL document CHEMBL4610056, “Development of novel small molecules for the treatment of ALS” (Bioorg Med Chem Lett, 2020)
